# Key:
# [1] = target: T1, Full length Human HDAC1 (Homo sapiens, UniProt Q13547); assay: HDAC1 enzymatic assay (deacetylation of FAM-labeled peptide substrate, microfluidic electrophoresis); assay type: biochemical; conditions: recombinant enzymatic assay
# T1 construct: Full length Human HDAC1; His (C); FLAG (C); host or cells: baculovirus expression system
# Experimental: (§1) HDAC2 and HDAC1 Enzymatic Assay (HDAC2 and HDAC1 IC50 Data)
# (§2) The following describes an assay protocol for measuring the deacetylation of a peptide substrate by HDAC2 or HDAC1.
# (§3) HD AC protein composition and respective substrate peptides are summarized below.
# (§4) HD AC reactions are assembled in 384 well plates (Greiner) in a total volume of 20 μL as following:
# (§5) HDAC proteins are pre-diluted in the assay buffer comprising: 100 mM HEPES, pH 7.5, 0.1% BSA, 0.01% Triton X-100, 25 mM KCl and dispensed into 384 well plate (10 uL per well).
# (§6) Test compounds are serially pre-diluted in DMSO and added to the protein samples by acoustic dispensing (Labcyte Echo). Concentration of DMSO is equalized to 1% in all samples.
# (§7) Control samples (0%-inhibition in the absence of inhibitor, DMSO only) and 100%-inhibition (in the absence of enzyme) are assembled in replicates of four and used to calculate the %-inhibition in the presence of compounds.
# (§8) At this step compounds can be pre-incubated with enzyme if desired.
# (§9) The reactions are initiated by addition of 10 uL of the FAM-labeled substrate peptide pre-diluted in the same assay buffer. Final concentration of substrate peptide is 1 uM (HDAC1-2).
# (§10) The reactions are allowed to proceed at room temperature. Following incubation, the reactions are quenched by addition of 50 μL of termination buffer (100 mM HEPES, pH7.5, 0.01% Triton X-100, 0.1% SDS). Terminated plates are analyzed on a microfluidic electrophoresis instrument (Caliper LabChip® 3000, Caliper Life Sciences/Perkin Elmer) which enables electrophoretic separation of de-acetylated product from acetylated substrate. A change in the relative intensity of the peptide substrate and product is the parameter measured. Activity in each test sample is determined as the product to sum ratio (PSR): P/(S+P), where P is the peak height of the product, and S is the peak height of the substrate. Percent inhibition (Pinh) is determined using the following equation: Pinh=(PSR0% inh−PSRcompound)/(PSR0% inh−PSR100% inh)*100, in which: PSRcompound is the product/sum ratio in the presence of compound, PSR0% inh is the product/sum ratio in the absence of compound and the PSR100% inh is the product/sum ratio in the absence of the enzyme. To determine IC50 of compounds (50%-inhibition) the %-inh data (Pinh versus compound concentration) are fit by a 4 parameter sigmoid dose-response model using XLfit software (IDBS).
# (§11) In the table, “A” indicates a IC50 value of less than 0.5 μM; “B” a IC50 value from 0.5 μM to 1.0 μM; “C” a IC50 value of greater than 1.0 μM and less than or equal to 2.0 μM; and “D” indicates an IC50 value of greater than 2.0 μM. NT=Not Tested.
# [2] = target: T2, HDAC2 (Homo sapiens, UniProt Q92769); assay: HDAC2 Enzymatic Inhibition Assay in SH-SY5Y Cell Lysate with an Exogenous Substrate (HDAC-Glo 2); assay type: cell-based; conditions: SH-SY5Y cells
# T2 construct: host or cells: SH-SY5Y cells
# T2 sequence (Q92769 whole entry): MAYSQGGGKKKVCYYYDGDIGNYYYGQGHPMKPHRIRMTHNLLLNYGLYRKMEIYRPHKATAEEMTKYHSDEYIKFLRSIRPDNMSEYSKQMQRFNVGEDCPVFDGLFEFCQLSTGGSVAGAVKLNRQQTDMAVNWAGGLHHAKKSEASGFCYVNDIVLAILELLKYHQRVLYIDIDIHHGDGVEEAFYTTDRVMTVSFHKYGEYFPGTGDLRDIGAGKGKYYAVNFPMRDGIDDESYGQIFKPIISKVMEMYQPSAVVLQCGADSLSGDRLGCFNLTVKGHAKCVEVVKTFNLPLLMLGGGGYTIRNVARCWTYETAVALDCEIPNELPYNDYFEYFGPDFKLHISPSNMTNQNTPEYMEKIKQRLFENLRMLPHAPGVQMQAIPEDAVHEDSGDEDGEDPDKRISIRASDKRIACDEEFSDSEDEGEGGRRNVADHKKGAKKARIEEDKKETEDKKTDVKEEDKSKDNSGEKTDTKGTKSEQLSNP
# Experimental: HDAC2 Enzymatic Inhibition Assay in SH-SY5Y Cell Lysate with an Exogenous Substrate
# SH-SY5Y cells (Sigma) were cultured in Eagle's Modified Essential Medium supplemented with 10% fetal bovine serum and pen/strep. Twenty-four hours prior to compound dosing 20 uL of cells were plated in white 384 well plates at a density of 1,500 cells/well. Compounds were serially diluted in neat DMSO and then diluted 1:100 v/v into media without FBS and mixed. Media was removed from the plated cells and the diluted compounds in serum free media (1% v/v final DMSO) were added and incubated at 37° C. for five hours. Ten uL of HDAC-Glo 2 reagent with 0.1% Triton X-100 was then added, the plate was mixed and allowed to develop at room temperature for 100 minutes. Plates were then read with a Spectramax LMax luminometer employing a 0.4 s integration time. Dose response curves were constructed with normalized data where CI-994 at 100 uM was defined as 100% inhibition and DMSO alone as 0% inhibition.
# as §11
# [3] = target: T3, Full length Human HDAC2 (Homo sapiens, UniProt Q92769); assay: HDAC2 enzymatic assay (deacetylation of FAM-labeled peptide substrate, microfluidic electrophoresis); assay type: biochemical; conditions: recombinant enzymatic assay
# T3 construct: Full length Human HDAC2; FLAG (C); host or cells: baculovirus expression system
# T3 sequence (Q92769 whole entry): as above
# Experimental: as §1, §2, §3, §4, §5, §6, §7, §8, §9, §10, §11
# [4] = five hours incubation, Table 3, class symbols
# T1 sequence (Q13547 whole entry): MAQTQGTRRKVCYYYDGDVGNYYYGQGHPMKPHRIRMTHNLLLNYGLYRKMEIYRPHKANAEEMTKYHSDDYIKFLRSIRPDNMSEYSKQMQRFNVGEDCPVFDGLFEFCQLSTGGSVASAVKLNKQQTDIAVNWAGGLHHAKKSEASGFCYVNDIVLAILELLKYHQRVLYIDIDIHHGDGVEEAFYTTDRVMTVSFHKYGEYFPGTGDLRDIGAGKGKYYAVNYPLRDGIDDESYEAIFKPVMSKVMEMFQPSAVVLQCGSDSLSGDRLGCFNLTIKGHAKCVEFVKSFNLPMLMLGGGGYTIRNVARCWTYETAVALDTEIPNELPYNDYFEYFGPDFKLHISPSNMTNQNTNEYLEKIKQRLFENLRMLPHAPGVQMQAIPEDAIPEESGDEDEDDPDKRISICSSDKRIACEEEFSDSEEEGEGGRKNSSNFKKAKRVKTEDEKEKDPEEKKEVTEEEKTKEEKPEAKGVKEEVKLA
"IC50 ([1]; Table 2, class symbols) [µM]","IC50 [2, 4] [µM]","IC50 ([3]; Table 2, class symbols) [µM]","IC50 ([1]; Table 4, numeric) [µM]","IC50 ([2]; Table 4, numeric) [µM]","IC50 ([3]; Table 4, numeric) [µM]",SMILES
< 0.5,1 to 2,0.5 to 1,–,–,–,Nc1ccc(-c2ccc(F)cc2)nc1NC(=O)N1CC(Cc2ncc(C(F)F)cn2)C1 [Compound 76]
1 to 2,1 to 2,1 to 2,–,–,–,Nc1ccc(-c2ccc(F)cc2F)nc1NC(=O)N1CC(Cn2cccn2)C1 [Compound 30]
1 to 2,0.5 to 1,0.5 to 1,–,–,–,Nc1ccc(-c2ccccc2F)nc1NC(=O)N1CC(C(F)(F)c2ncccn2)C1 [Compound 35]
0.5 to 1,< 0.5,1 to 2,–,–,–,Cc1ccc(CC2CN(C(=O)Nc3nc(-c4ccc(F)cc4F)ccc3N)C2)nn1 [Compound 24]
0.5 to 1,1 to 2,1 to 2,–,–,–,Cc1ncc(CC2CN(C(=O)Nc3nc(-c4ccc(F)cc4)ccc3N)C2)cn1 [Compound 80]
0.5 to 1,0.5 to 1,0.5 to 1,–,–,–,Cc1ccnc(CC2CN(C(=O)Nc3nc(-c4ccc(F)cc4F)ccc3N)C2)n1 [Compound 11]
< 0.5,> 2,0.5 to 1,–,–,–,CC(F)(F)c1cnc(CC2CN(C(=O)Nc3nc(-c4ccc(F)cc4)ccc3N)C2)nc1 [Compound 81]
< 0.5,0.5 to 1,0.5 to 1,–,–,–,Cc1cnc(CC2CN(C(=O)Nc3nc(-c4ccc(F)cc4)ccc3N)C2)nc1 [Compound 65]
0.5 to 1,> 2,0.5 to 1,–,–,–,Nc1ccc(-c2ccc(F)cc2F)nc1NC(=O)N1CC(C(F)(F)c2ncc(F)cn2)C1 [Compound 34]
< 0.5,1 to 2,< 0.5,–,–,–,Nc1ccc(-c2ccc(F)cc2)nc1NC(=O)N1CC(C(F)(F)c2ncccn2)C1 [Compound 36]
< 0.5,0.5 to 1,1 to 2,–,–,–,Nc1ccc(-c2ccc(F)cc2)nc1NC(=O)N1CC(Cc2ncccn2)C1 [Compound 64]
0.5 to 1,1 to 2,0.5 to 1,–,–,–,Nc1ccc(-c2ccccc2F)nc1NC(=O)N1CC(Cc2ncc(F)cn2)C1 [Compound 26]
0.5 to 1,0.5 to 1,1 to 2,–,–,–,Cc1nnc(CC2CN(C(=O)Nc3nc(-c4ccc(F)cc4F)ccc3N)C2)s1 [Compound 45]
0.5 to 1,0.5 to 1,0.5 to 1,–,–,–,Nc1ccc(-c2ccccc2F)nc1NC(=O)N1CC(C(F)(F)c2ncc(F)cn2)C1 [Compound 37]
> 2,1 to 2,> 2,2.26,1.56,2.8,Cc1ncc(CC2CN(C(=O)Nc3nc(-c4ccc(F)cc4F)ccc3N)C2)cn1 [Compound 6]
–,–,–,> 30,30,> 30,"Cc1ncc(C2CN(C(=O)Nc3nc(-c4ccc(F)cc4F)ccc3N)C2)cn1 [Comparator B, reference compound]"
> 2,1 to 2,> 2,–,–,–,Nc1ccc(-c2ccc(F)cc2F)nc1NC(=O)N1CC(Cc2ccncc2)C1 [Compound 4]
< 0.5,0.5 to 1,< 0.5,–,–,–,Nc1ccc(-c2ccc(F)cc2)nc1NC(=O)N1CC(C(F)(F)c2ncc(F)cn2)C1 [Compound 38]
0.5 to 1,1 to 2,0.5 to 1,–,–,–,Nc1ccc(-c2ccc(F)cc2F)nc1NC(=O)N1CC(C(F)(F)c2ncccn2)C1 [Compound 33]
< 0.5,1 to 2,0.5 to 1,–,–,–,Nc1ccc(-c2ccc(F)cc2F)nc1NC(=O)N1CC(Cc2ccccn2)C1 [Compound 2]
0.5 to 1,1 to 2,1 to 2,–,–,–,Nc1ccc(-c2ccc(F)cc2F)nc1NC(=O)N1CC(Cc2cccnc2)C1 [Compound 3]
0.5 to 1,0.5 to 1,0.5 to 1,–,–,–,Nc1ccc(-c2ccc(F)cc2F)nc1NC(=O)N1CC(Cc2ncco2)C1 [Compound 22]
< 0.5,1 to 2,1 to 2,–,–,–,Nc1ccc(-c2cccs2)nc1NC(=O)N1CC(Cc2ncc(F)cn2)C1 [Compound 69]
